Laboratory results from article PMC7509217 (Cellular and Molecular Gastroenterology and Hepatology, 2020).

Target: rat ACC2 (acetyl-CoA carboxylase 2) (Rattus norvegicus, UniProt O70151)
Assay: citrate-activated ACC enzyme, […]bicarbonate incorporation into malonyl-CoA
Format: biochemical

Sequence of rat ACC2 (acetyl-CoA carboxylase 2) (O70151 1-2456): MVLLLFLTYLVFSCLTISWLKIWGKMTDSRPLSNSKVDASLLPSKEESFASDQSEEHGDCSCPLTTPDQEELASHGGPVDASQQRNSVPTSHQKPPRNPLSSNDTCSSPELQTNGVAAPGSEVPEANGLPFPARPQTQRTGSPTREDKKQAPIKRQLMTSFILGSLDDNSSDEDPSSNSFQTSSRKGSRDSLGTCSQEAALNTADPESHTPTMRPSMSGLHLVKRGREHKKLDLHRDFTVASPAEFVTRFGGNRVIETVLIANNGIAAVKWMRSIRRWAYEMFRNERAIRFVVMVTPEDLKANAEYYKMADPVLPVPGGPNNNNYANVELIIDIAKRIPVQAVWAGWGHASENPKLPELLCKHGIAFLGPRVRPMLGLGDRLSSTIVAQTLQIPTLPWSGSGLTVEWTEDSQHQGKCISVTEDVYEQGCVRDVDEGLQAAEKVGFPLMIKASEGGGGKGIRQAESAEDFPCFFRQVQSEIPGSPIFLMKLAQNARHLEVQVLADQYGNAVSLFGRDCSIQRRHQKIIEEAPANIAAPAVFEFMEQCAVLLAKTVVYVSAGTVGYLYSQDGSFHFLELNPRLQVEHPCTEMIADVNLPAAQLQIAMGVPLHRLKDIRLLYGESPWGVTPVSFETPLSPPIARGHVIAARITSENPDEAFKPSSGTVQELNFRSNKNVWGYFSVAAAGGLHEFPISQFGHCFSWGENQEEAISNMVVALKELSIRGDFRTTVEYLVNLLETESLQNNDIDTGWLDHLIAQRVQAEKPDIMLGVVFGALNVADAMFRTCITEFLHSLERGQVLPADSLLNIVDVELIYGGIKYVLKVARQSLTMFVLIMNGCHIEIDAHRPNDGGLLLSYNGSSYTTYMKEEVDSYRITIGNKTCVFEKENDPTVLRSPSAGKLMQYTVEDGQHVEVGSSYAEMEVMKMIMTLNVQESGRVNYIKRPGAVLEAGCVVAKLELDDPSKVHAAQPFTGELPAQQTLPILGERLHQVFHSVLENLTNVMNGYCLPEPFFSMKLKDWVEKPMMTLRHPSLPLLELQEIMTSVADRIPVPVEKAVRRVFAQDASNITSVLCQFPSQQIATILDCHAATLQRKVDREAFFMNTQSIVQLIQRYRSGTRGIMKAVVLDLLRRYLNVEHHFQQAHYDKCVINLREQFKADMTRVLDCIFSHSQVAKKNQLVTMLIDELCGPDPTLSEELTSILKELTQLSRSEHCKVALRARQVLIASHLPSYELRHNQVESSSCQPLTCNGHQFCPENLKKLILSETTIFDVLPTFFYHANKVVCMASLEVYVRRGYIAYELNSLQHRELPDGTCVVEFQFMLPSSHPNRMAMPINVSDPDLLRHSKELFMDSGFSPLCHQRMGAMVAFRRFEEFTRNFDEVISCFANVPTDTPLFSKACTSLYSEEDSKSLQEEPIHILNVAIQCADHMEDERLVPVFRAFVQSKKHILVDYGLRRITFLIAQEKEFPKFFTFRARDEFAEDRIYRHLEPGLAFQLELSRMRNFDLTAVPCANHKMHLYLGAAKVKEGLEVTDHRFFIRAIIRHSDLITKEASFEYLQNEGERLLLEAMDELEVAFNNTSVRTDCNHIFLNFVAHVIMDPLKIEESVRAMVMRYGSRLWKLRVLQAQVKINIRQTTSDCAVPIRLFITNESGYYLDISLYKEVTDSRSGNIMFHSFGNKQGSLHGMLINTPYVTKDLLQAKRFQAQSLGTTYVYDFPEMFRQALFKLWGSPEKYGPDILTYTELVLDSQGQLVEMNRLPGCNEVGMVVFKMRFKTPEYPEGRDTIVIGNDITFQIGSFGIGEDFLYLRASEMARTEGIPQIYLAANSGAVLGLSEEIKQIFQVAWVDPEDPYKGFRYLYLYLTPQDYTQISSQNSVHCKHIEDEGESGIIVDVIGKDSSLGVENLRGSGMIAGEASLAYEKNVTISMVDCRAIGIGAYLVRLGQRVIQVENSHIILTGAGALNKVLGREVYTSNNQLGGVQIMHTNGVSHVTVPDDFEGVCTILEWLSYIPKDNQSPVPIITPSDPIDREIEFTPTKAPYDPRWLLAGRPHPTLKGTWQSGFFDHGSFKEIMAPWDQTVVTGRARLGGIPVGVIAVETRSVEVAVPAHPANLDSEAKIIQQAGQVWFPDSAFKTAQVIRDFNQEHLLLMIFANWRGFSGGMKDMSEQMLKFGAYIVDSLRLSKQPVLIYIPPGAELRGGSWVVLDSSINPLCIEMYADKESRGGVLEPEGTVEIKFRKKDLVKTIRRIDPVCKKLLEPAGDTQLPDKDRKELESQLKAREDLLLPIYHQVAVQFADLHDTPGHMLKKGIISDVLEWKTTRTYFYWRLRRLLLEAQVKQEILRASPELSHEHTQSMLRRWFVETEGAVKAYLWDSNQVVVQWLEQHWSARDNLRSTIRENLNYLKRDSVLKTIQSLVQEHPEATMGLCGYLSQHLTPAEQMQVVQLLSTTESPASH

IC50: 8.2 ± 4.1 nM
Compound: COc1cc(C(=O)N2CCC3(CC2)CC(=O)c2c(cnn2C(C)C)C3)cc(-c2ccc(C(=O)O)cc2)n1 [PF-05221304]
